From patent US8759535B2, “Substituted fused imidazole derivatives, pharmaceutical compositions, and methods of use thereof” (High Point Pharmaceuticals, LLC, priority 2010, dated 2014) come the findings set out here.

One test deals with HMOX1. Kind of test: HMOX1 Protein Assay (immunostaining of HO-1 in NHLF cells, GE InCell 1000). In kind it is cell-based. Conditions: Homo sapiens, fold change above DMSO treated cells, 3 μM compound (asterisk), 16 h. The essentials: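 Fold induction of HO-1 over vehicle, normally at 5 μM compound (asterisk marks 3 μM), in 0.8% DMSO medium. Normal human lung fibroblasts were treated 16 h, then paraformaldehyde-fixed, anti-HO-1/Alexa 488 stained with Hoechst, and read by high-content imaging.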
For `CN1CCN(CCCNC(=O)c2ccc3c(c2)nc(Nc2nc4ccc(C(F)(F)F)cc4s2)n3C)CC1` [Example 357, 1-Methyl-2-(6-trifluoromethyl-benzothiazol-2-ylamino)-1H-benzoimidazole-5-carboxylic acid [3-(4-methyl-piperazin-1-yl)-propyl]-amide], the fold induction (as a rule, the ratio of treated to control signal) at 3 µM is 22.
Still for that read-out and setting: the value for `Cn1c(Nc2nc3ccc(C(F)(F)F)cc3s2)nc2cc(C(=O)NCC(=O)N3CCC[C@H](O)C3)ccc21` [Example 434, 1-Methyl-2-(6-trifluoromethyl-benzothiazol-2-ylamino)-1H-benzoimidazole-5-carboxylic acid [2-((S)-3-hydroxy-piperidin-1-yl)-2-oxo-ethyl]-amide] was 34.6; that for `CCS(=O)(=O)CCNC(=O)c1ccc2c(c1)nc(Nc1nc3ccc(Cl)cc3s1)n2C` [Example 277, 2-(6-Chloro-benzothiazol-2-ylamino)-1-methyl-1H-benzoimidazole-5-carboxylic acid (2-ethanesulfonyl-ethyl)-amide] was 38.3.
As for `Cn1c(Nc2nc3ccc(C(F)(F)F)cc3s2)nc2cc(C(=O)NC[C@H]3CC[C@H](O)CC3)ccc21` [Example 234, 1-Methyl-2-(6-trifluoromethyl-benzothiazol-2-ylamino)-1H-benzoimidazole-5-carboxylic acid (trans-4-hydroxy-cyclohexylmethyl)-amide], the fold induction at 3 µM is 30.9.

The same test, now with this note: Homo sapiens, fold change above DMSO treated cells, 5 μM compound, 16 h.
Regarding `Cn1c(Nc2nc3ccc(Cl)cc3s2)nc2cc(C(=O)NC[C@H]3CC[C@H](CO)CC3)ccc21` [Example 255, 2-(6-Chloro-benzothiazol-2-ylamino)-1-methyl-1H-benzoimidazole-5-carboxylic acid (trans-4-hydroxymethyl-cyclohexylmethyl)-amide], the fold induction at 5 µM amounted to 49.3.
Still for that read-out and setting: the value for `CCOCCCNC(=O)c1ccc2c(c1)nc(Nc1nc3ccc(OC(F)(F)F)cc3s1)n2C` [Example 14, 1-Methyl-2-(6-trifluoromethoxy-benzothiazol-2-ylamino)-1H-benzoimidazole-5-carboxylic acid (3-ethoxy-propyl)-amide] was 22; that for `CCOC(=O)C1(NC(=O)c2ccc3c(c2)nc(Nc2nc4ccc(OC(F)(F)F)cc4s2)n3C)CC1` [Example 144, 1-{[1-Methyl-2-(6-trifluoromethoxy-benzothiazol-2-ylamino)-1H-benzimidazole-5-carbonyl]-amino}-cyclopropanecarboxylic acid ethyl ester] was 7.3.
As to `CNC(=O)c1ccc2c(c1)nc(Nc1nc3ccc(S(C)(=O)=O)cc3s1)n2C` [Example 126, 2-(6-Methanesulfonyl-benzothiazol-2-ylamino)-1-methyl-1H-benzimidazole-5-carboxylic acid methylamide], the fold induction at 5 µM is 4.6.
`Cn1c(Nc2nc3cc(F)ccc3s2)nc2cc(C(=O)O)ccc21` [Example 117, 2-(5-Fluoro-benzothiazol-2-ylamino)-1-methyl-1H-benzimidazole-5-carboxylic acid] gave a fold induction at 5 µM of 28.8.
`CNCCNC(=O)c1ccc2c(c1)nc(Nc1nc3ccc(OC(F)(F)F)cc3s1)n2C` [Example 105, 1-Methyl-2-(6-trifluoromethoxy-benzothiazol-2-ylamino)-1H-benzoimidazole-5-carboxylic acid (2-methylamino-ethyl)-amide] came in with a fold induction at 5 µM of 17.5.
The compound `Cn1c(Nc2nc3ccc(Cl)cc3s2)nc2cc(C(=O)NCCN3CCCC(F)(F)C3)ccc21` [Example 336, 2-(6-Chloro-benzothiazol-2-ylamino)-1-methyl-1H-benzoimidazole-5-carboxylic acid [2-(3,3-difluoro-piperidin-1-yl)-ethyl]-amide] registered a fold induction at 5 µM of 16.1.
Same read-out and setting: in the case of `Cn1c(Nc2nc3ccc(OC(F)(F)F)cc3s2)nc2cc(C(=O)NCCN3CCCC(O)C3)ccc21` (centres unmarked) [Example 193, 1-Methyl-2-(6-trifluoromethoxy-benzothiazol-2-ylamino)-1H-benzoimidazole-5-carboxylic acid [2-(3-hydroxy-piperidin-1-yl)ethyl]-amide] it was 11.1.
Still for that read-out and setting: the value for `Cn1c(Nc2nc3ccc(OC(F)(F)F)cc3s2)nc2cc(C(=O)NCCc3cccc(O)c3)ccc21` [Example 252, 1-Methyl-2-(6-trifluoromethoxy-benzothiazol-2-ylamino)-1H-benzoimidazole-5-carboxylic acid [2-(3-hydroxy-phenyl)-ethyl]-amide] was 13.1; that for `COCCNC(=O)c1ccc2c(c1)nc(Nc1nc3ccc(C(F)(F)F)cc3s1)n2C` [Example 25, 1-Methyl-2-(6-trifluoromethyl-benzothiazol-2-ylamino)-1H-benzoimidazole-5-carboxylic acid (2-methoxy-ethyl)-amide] was 27.1.
Compound `Cn1c(Nc2nc3ccc(OC(F)(F)F)cc3s2)nc2cc(C(=O)NCCCC(C)(C)CO)ccc21` [Example 229, 1-Methyl-2-(6-trifluoromethoxy-benzothiazol-2-ylamino)-1H-benzoimidazole-5-carboxylic acid (5-hydroxy-4,4-dimethyl-pentyl)-amide] had a fold induction at 5 µM of 14.4.
Regarding `Cn1c(Nc2nc3ccc(OC(F)(F)F)cc3s2)nc2cc(C(=O)NCC(C)(C)O)ccc21` [Example 45, 1-Methyl-2-(6-trifluoromethoxy-benzothiazol-2-ylamino)-1H-benzoimidazole-5-carboxylic acid (2-hydroxy-2-methyl-propyl)-amide], the fold induction at 5 µM was 12.5.
In turn, `COC(=O)CNC(=O)c1ccc2c(c1)nc(Nc1nc3ccc(OC(F)(F)F)cc3s1)n2C` [Example 79, {[1-Methyl-2-(6-trifluoromethoxy-benzothiazol-2-ylamino)-1H-benzoimidazole-5-carbonyl]-amino}-acetic acid methyl ester] returned a fold induction at 5 µM of 17.6.
Still for that read-out and setting: in the case of `COc1cc2c(cc1C(=O)O)nc(Nc1nc3ccc(OC(F)(F)F)cc3s1)n2C` [Example 62, 6-Methoxy-1-methyl-2-(6-trifluoromethoxy-benzothiazol-2-ylamino)-1H-benzoimidazole-5-carboxylic acid] it was 20.3; in that of `Cn1c(Nc2nc3ccc(OC(F)(F)F)cc3s2)nc2cc(C#N)ccc21` [Example 194, 1-Methyl-2-(6-trifluoromethoxy-benzothiazol-2-ylamino)-1H-benzoimidazole-5-carbonitrile], 6.
Compound `Cn1c(Nc2nc3ccc(OC(F)(F)F)cc3s2)nc2cc(C(=O)NCCS(C)(=O)=O)ccc21` [Example 102, 1-Methyl-2-(6-trifluoromethoxy-benzothiazol-2-ylamino)-1H-benzoimidazole-5-carboxylic acid (2-methanesulfonyl-ethyl)-amide] yielded a fold induction at 5 µM of 22.6.
The same measure, in the same setting: the value for `CCn1c(Nc2nc3ccc(OC(F)(F)F)cc3s2)nc2cc(C(=O)NCC(=O)N(C)C)ccc21` [Example 186, 1-Ethyl-2-(6-trifluoromethoxy-benzothiazol-2-ylamino)-1H-benzoimidazole-5-carboxylic acid dimethylcarbamoylmethyl-amide] was 20.2; that for `Cn1c(Nc2nc3ccc(OC(F)(F)F)cc3s2)nc2cc(C(=O)N[C@@H]3C[C@H](CO)[C@@H](O)[C@H]3O)ccc21` [Example 282, 1-Methyl-2-(6-trifluoromethoxy-benzothiazol-2-ylamino)-1H-benzoimidazole-5-carboxylic acid ((1R,2S,3R,4R)-2,3-dihydroxy-4-hydroxymethyl-cyclopentyl)-amide] was 51.7.
Still for that read-out and setting: the value for `Cn1c(Nc2nc3ccc(OC(F)(F)F)cc3s2)nc2cc(C(=O)NCCOCCOCCO)ccc21` [Example 256, 1-Methyl-2-(6-trifluoromethoxy-benzothiazol-2-ylamino)-1H-benzoimidazole-5-carboxylic acid {2-[2-(2-hydroxy-ethoxy)-ethoxy]-ethyl}-amide] was 48.
